Data taken from paper PMC5618194, “Orally Delivered Scorpion Antimicrobial Peptides Exhibit Activity against Pea Aphid (Acyrthosiphon pisum) and Its Bacterial Symbionts” (Toxins, 2017).
Values after ≈ are worked out from the molar mass of the structure shown. Where two headings read alike, the source gives them in different places. No end group written: not given here.

Legend:
B. aphidicola [1] = assay: FISH localization of symbiont in treated aphid nymphs; format: in vivo, Buchnera aphidicola in Acyrthosiphon pisum; conditions: highest concentration of each AMP, control treatments
Method: (§1) FISH was carried out as previously described, with slight modifications. Treated A. pisum nymphs were fixed for three days in Carnoy’s solution (6:3:1 […]:glacial acetic acid) and then bleached in 6% H2O2 in 96% ethanol for 1 week. After bleaching, samples were washed in 100% ethanol and then hybridized overnight in hybridization buffer (20 mM Tris-HCl pH 8.0, 0.9 M NaCl, 0.01% sodium dodecylsulfate, 30% formamide) containing 100 nM of each fluorescent probe and 500 nM DAPI. After hybridization, samples were rinsed three times with phosphate buffered saline containing 0.3% Triton X-100 and viewed under a Leica TCS SP8 confocal microscope (Leica Microsystems, Wetzlar, Germany). We analysed a minimum of 20 samples from each treatment. The specificity of detection was confirmed using controls with no probe and specimens were pre-treated with RNase.

A. pisum [2] = format: in vivo, Acyrthosiphon pisum; conditions: for % Survival: after three days of feeding, 48 h old nymphs, ten per chamber, five replicates, control AP3 diet survival = 90%; for Kaplan-Meier analysis: Mean, Estimate (survival time): three days of feeding, control 2.880, estimation limited to the largest survival time if censored
Method: (§2) A. pisum nymphs (48 h old) were fed for three days on an artificial AP3 diet in modified chambers. The AP3 diet was mixed with the corresponding AMP or control treatment. Ten nymphs were placed in each chamber and five replicates were included per treatment. AMPs were tested at three different concentrations: 50, 250, and 500 µg/mL. Untreated aphids were fed on the control AP3 diet. Positive control treatments comprised aphids fed on the AP3 diet supplemented with the insecticide imidacloprid (5 µg/mL) or the antibiotic rifampicin (50 µg/mL) (Sigma-Aldrich, Taufkirchen, Germany). Imidacloprid is strongly hydrophobic, and was therefore prepared first as a highly concentrated stock (1000 µg/mL) in acetone and working solutions were diluted in the AP3 diet. The corresponding control (AP3 + acetone) was tested on the aphids, and survival was not affected when compared to AP3 diet alone or AP3 diet diluted with water (data not shown). Mortality was scored after 24, 48, and 72 h of feeding. Aphids that survived the three-day treatment were transferred to agar plates containing bean plant leaves and reared for another two weeks in order to determine the impact of the diets on survival and reproduction.
All data were analysed using SPSS v17.0 software (SPSS Inc., Chicago, IL, USA) and statistical significance was defined as p < 0.05. For mortality assessment, we used non-parametric survival analysis (Kaplan-Meier) and multiple pairwise comparisons among different groups were carried out using log-rank tests to assess efficiency. The total number of offspring, time to reproduction, and relative numbers of bacterial symbionts were analysed using the Wilcoxon ranked sum test for non-parametric data and a paired t-test for parametric data.

S. symbiotica [3] = assay: FISH localization of symbiont in treated aphid nymphs; format: in vivo, Serratia symbiotica in Acyrthosiphon pisum
Method: as §1

S. symbiotica CWBI-2.3 = assay: microbe, parasite or virus in culture; format: cell-based, Serratia symbiotica; conditions: broth microdilution (CLSI), 96-well polypropylene plates, 535 medium (Tripticase soy broth), 5 × 10^5 CFU/mL, 18 h, absorbance at 600 nm, two-fold dilutions 500 to 4 µg/mL, lowest concentration causing complete growth inhibition
Method: S. symbiotica strain CWBI-2.3, the only aphid symbiotic bacterium that can be cultivated in the laboratory, was purchased from the Leibniz Institute DSMZ (Braunschweig, Germany) and cultivated as recommended by the supplier. MICs were determined according to the CLSI guidelines using a broth microdilution assay in 96-well polypropylene microtiter plates. The bacteria were cultivated overnight at 28 °C using 535 medium (Tripticase soy broth) and diluted to 5 × 10^5 CFU/mL in broth. The AMPs were dissolved in water to a concentration of 4 mg/mL and a series of two-fold dilutions was prepared in 535 broths, ranging from 500 to 4 µg/mL. S. symbiotica CWBI-2.3 in an unmodified medium was used as a positive control, and blanks were prepared with medium only or with medium and water (the latter to exclude any possible negative effect of water on the bacteria). The bacteria were incubated for 18 h and the absorbance at 600 nm was recorded every 20 min. The MICs were defined as the lowest concentrations of AMP causing complete bacterial growth inhibition.

A. pisum [4] = assay: Aphid reproduction after AMP feeding (time to reproduction, number of offspring); format: in vivo, Acyrthosiphon pisum; conditions: 50 µg/mL for three days; surviving aphids followed two weeks
Method: The effect of each AMP on A. pisum reproduction was determined by counting the number of offspring and recording the delay before reproduction in surviving aphids for two weeks after treatment (Figure 2).
as §2, with “The corresponding control (AP3 + acetone) was tested on the aphids, and survival was not affected when compared to AP3 diet alone or AP3 diet diluted with water (data not shown).” left out, “Aphids that survived the three-day treatment were transferred to agar plates containing bean plant leaves and reared for another two weeks in order to determine the impact of the diets on survival and reproduction.” left out
(§3) All data were analysed using SPSS v17.0 software (SPSS Inc., Chicago, IL, USA) and statistical significance was defined as p < 0.05. […] The total number of offspring, time to reproduction, and relative numbers of bacterial symbionts were analysed using the Wilcoxon ranked sum test for non-parametric data and a paired t-test for parametric data.

B. aphidicola [5] = assay: qPCR relative quantification of symbiont in treated aphids; format: in vivo, Buchnera aphidicola in Acyrthosiphon pisum; conditions: 50 µg/mL
Method: (§4) The density of the B. aphidicola and S. symbiotica populations in vivo was determined by qPCR. Genomic DNA was extracted from pools of five aphids, as previously described. Three biological replicates were prepared per treatment. Amplifications were carried out using a StepOnePlus™ Real-Time PCR System (Applied Biosystems, Waltham, MA, USA). The reaction volume was 10 μL, comprising 2 μL of template DNA (25 ng/μL), 10 μM of each specific primer and 5 μL of SYBR Green PCR Master Mix (Applied Biosystems). Each reaction was heated to 95 °C for 10 min, followed by 40 cycles of 95 °C for 15 s and 60 °C for 60 s. Melting curve analysis was performed by increasing the temperature from 60 °C to 95 °C for 15 s, cooling to 60 °C for 60 s and heating to 95 °C for 15 s. […] Relative abundance values for each symbiont were calculated by comparing the threshold cycle (Ct) of each target gene to that of the aphid ribosomal protein L32 gene and efficiencies were calculated using LinReg PCR software.
as §3

S. symbiotica [6] = assay: as above; format: in vivo, Serratia symbiotica in Acyrthosiphon pisum; conditions: 50 µg/mL
Method: as §4, §3

[7] = tested on: green peach aphid Myzus persicae (Sulzer); set-up: method as in doi:10.1111/j.1439-0418.2006.01117.x; conditions: cited from earlier work
Escherichia coli = conditions: cited from earlier work
[8] = after three days of treatment, compared to control AP3 diet, pools of five aphids, three biological replicates
[9] = two weeks after treatment, data not shown

In the case of `O=[N+]([O-])NC1=NCCN1Cc1ccc(Cl)nc1` [Imidacloprid], the “localization of the B. aphidicola FISH signal” value (B. aphidicola [1]; 48 h after treatment) is reported as “did not affect the localization of the bacterial symbionts”, the “% Survival” value (A. pisum [2]; 5 µg/mL in AP3 diet) is reported as 0% and the “Kaplan-Meier analysis: Mean, Estimate (survival time)” value (A. pisum [2]; 5 µg/mL) is reported as 1.960. For the same molecule, the “localization of the S. symbiotica FISH signal” value (S. symbiotica [3]; 24 and 48 h after exposure, control treatment) was “did not affect the localization of the bacterial symbionts”.

For `CO[C@H]1/C=C/O[C@@]2(C)Oc3c(C)c(O)c4c(O)c(c(/C=N/N5CCN(C)CC5)c(O)c4c3C2=O)NC(=O)/C(C)=C\C=C\[C@H](C)[C@H](O)[C@@H](C)[C@@H](O)[C@@H](C)[C@H](OC(C)=O)[C@@H]1C` [Rifampicin], the MIC (S. symbiotica CWBI-2.3; Serratia symbiotica, CWBI2.3, read-out: MIC (In Vitro)) was 50 µg/mL (≈ 60.8 µM), the number of offspring (A. pisum [4]) was “hardly any offspring” and the “density of B. aphidicola (qPCR, relative abundance)” value (B. aphidicola [5]; [8]) was “significant reduction”. The “density of B. aphidicola (qPCR)” value (B. aphidicola [5]; [9]) was “significant reduction”, the “intensity of the B. aphidicola FISH signal” value (B. aphidicola [1]; aphid nymphs, 24 and 48 h after exposure) was “neither the AMPs nor rifampicin reduced the intensity of the signal” and the “survival during the two weeks after treatment” value (A. pisum [2]; 50 µg/mL for three days, survivors monitored for the following two weeks on bean leaves, data not shown) was “did not affect aphid survival”. The “% Survival” value (A. pisum [2]; 50 µg/mL in AP3 diet) was 92.5%, the “Kaplan-Meier analysis: Mean, Estimate (survival time)” value (A. pisum [2]; 50 µg/mL) was 2.925 and the “density of S. symbiotica (qPCR, relative abundance)” value (S. symbiotica [6]; [8]) was “significant reduction”. The “density of S. symbiotica (qPCR)” value (S. symbiotica [6]; [9]) was “significant reduction” and the “S. symbiotica FISH signal” value (S. symbiotica [3]; 48 h after exposure, highest concentration of each AMP, control treatments, minimum of 20 samples per treatment) was “reduced the S. symbiotica signal”.

For FFSALLSGIKSLF-NH2 [Um4], the “MIC (In Vitro)” value (S. symbiotica CWBI-2.3) was greater than 500 µg/mL.

With FLSTIWNGIKGLL-NH2 [Uy192] the “MIC (In Vitro)” value (S. symbiotica CWBI-2.3) was 500 µg/mL.

In the case of FPFLKLSLKIPKSAIKSAIKRL-NH2 [D10], the “MIC (In Vitro)” value (S. symbiotica CWBI-2.3) is reported as greater than 500 µg/mL.

With FPFLLSLIPSAISAIKRL-NH2 [Uy234] the “MIC (In Vitro)” value (S. symbiotica CWBI-2.3) was greater than 500 µg/mL.

In the case of GFWGKLLEGVKKAI-NH2 [D5], the “MIC (In Vitro)” value (S. symbiotica CWBI-2.3) is reported as 500 µg/mL.

In the case of GFWGKLWEGVKNAI-NH2 [UyCT1], the “MIC (In Vitro)” value (S. symbiotica CWBI-2.3) is reported as 125 µg/mL.

With GFWGKLWEGVKNAIKKK-NH2 [D11] the “MIC (In Vitro)” value (S. symbiotica CWBI-2.3) was greater than 500 µg/mL.

For GNRPVYIPPPRPPHPRL-NH2 [Apidaecin], the “MIC (In Vitro)” value (S. symbiotica CWBI-2.3) was greater than 500 µg/mL.

For ILSAIWSGIKGLL-NH2 [Uy17], the “MIC (In Vitro)” value (S. symbiotica CWBI-2.3) was 250 µg/mL.

In the case of ILSAIWSGIKSLF-NH2 [UyCT3], the “MIC (In Vitro)” value (S. symbiotica CWBI-2.3) is reported as 125 µg/mL.

In the case of IWSAIWSGIKGLL-NH2 [UyCT5], the “MIC (In Vitro)” value (S. symbiotica CWBI-2.3) is reported as 125 µg/mL and the “nymphs killed after the first day” value (A. pisum [2]; in vivo, 48 h, 500 µg/mL) is reported as 10%.

With LWGKLWEGVKSLI-NH2 [D3] the “MIC (In Vitro)” value (S. symbiotica CWBI-2.3) was 250 µg/mL.

In the case of “RGFRKHFNKLVKKVKHTISETAHVAKDTAVIAGSGAAVVAAT-NH2 [Stomoxyn]”, the “MIC (In Vitro)” value (S. symbiotica CWBI-2.3) is reported as greater than 500 µg/mL.

For “indolicidin: an AMP from bovine neutrophils (ILPWKWPWWPWRR; ends and bridges not checked; UniProt P33046 131-143, looked up)”, the “activity against Myzus persicae” value [7] is given as “showed activity” and the “activity against Escherichia coli” value (Escherichia coli) is given as “showed activity”.
